Experimental data as given in patent publication US12252524B2, “GIP/GLP1 co-agonist compounds” (Eli Lilly and Company, priority 2018, dated 2025).
Numbered stars: 1 amine (or outer) side, 2 acyl side, 3 side chain; on linkers, the order of the positions; unused ones are H or OH. Square brackets hold non-standard residues; d marks the D form. Side chains are listed from the residue outwards. Peptide text beside a SMILES is read from it. * marks the point of attachment. C20 diacid = O=C(O)CCCCCCCCCCCCCCCCCCC(=O)*; γGlu = O=C(O)[C@H](CCC(=O)[*:2])N[*:1]; AEEA = NCCOCCOCC(=O)O; Aib = CC(C)(N)C(=O)O

What was measured:
[1] = biological target: human GLP-1 receptor (GLP-1R) (Homo sapiens, UniProt P43220); test: cAMP pharmacological functional assay in presence of casein, hGLP-1R; type: cell-based; settings: HEK293 cells expressing hGLP-1R, 0.1% Casein, geometric mean; read-out: hGLP1R cAMP Rel EC50 nM (SEM, n)
Chain of human GLP-1 receptor (GLP-1R) (P43220 24-463): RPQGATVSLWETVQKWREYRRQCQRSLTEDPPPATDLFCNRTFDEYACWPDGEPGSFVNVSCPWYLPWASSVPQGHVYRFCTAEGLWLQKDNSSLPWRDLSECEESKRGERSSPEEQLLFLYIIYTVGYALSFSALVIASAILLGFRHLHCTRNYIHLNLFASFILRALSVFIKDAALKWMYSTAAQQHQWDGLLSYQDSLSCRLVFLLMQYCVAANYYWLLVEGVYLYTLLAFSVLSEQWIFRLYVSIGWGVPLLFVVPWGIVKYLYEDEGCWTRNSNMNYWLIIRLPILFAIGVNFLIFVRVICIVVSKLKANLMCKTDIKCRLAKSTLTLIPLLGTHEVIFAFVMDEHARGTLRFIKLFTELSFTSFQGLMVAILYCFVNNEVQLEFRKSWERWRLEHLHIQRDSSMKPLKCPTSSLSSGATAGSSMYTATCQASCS

[2] = biological target: T1, human Gcg receptor (Homo sapiens, UniProt P47871); test: [125I]-Glucagon binding (SPA), human Gcg receptor; settings: read-out: hGLcgR Ki, nM (SEM, n)
T1 construct: expressed in transfected cells; crude membranes
T1 sequence (P47871 26-477): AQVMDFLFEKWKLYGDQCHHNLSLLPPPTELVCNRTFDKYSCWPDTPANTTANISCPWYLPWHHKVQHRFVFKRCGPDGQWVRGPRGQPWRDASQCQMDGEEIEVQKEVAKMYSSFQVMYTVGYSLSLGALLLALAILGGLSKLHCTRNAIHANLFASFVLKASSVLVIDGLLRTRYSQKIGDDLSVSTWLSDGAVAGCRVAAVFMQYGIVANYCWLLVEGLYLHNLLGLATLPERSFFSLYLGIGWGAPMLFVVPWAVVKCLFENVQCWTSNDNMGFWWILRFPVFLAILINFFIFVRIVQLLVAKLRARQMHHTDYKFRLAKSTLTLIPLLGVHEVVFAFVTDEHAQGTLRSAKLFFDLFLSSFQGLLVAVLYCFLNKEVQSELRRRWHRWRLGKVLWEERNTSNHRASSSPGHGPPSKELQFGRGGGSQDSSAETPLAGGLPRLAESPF
Method in brief: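 Crude membranes from cells expressing the receptor, prepared by hypotonic lysis in 50 mM Tris HCl pH 7.5 with protease inhibitors, homogenization and differential centrifugation, were used in a WGA-bead SPA. Binding buffer: 25 mM HEPES pH 7.4, 2.5 mM CaCl2, 1 mM MgCl2, bacitracin, Tween-20.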

[3] = biological target: human GLP-1R (Homo sapiens, UniProt P43220); test: [125I]-GLP-1 binding (SPA), human GLP-1 receptor; design: expressed in transfected cells; crude membranes; settings: read-out: hGLP1R Ki, (nM) (SEM, n)
Chain of human GLP-1R (P43220 24-463): as the sequence (P43220 24-463) above
Method in brief: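 Ki values are geometric means with SEM over independent replicates on different days, derived from IC50s fitted by four-parameter nonlinear regression. The assay used crude cell membranes in HEPES buffer, pH 7.4, containing CaCl2, MgCl2, bacitracin and TWEEN-20.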

[4] = biological target: T2, human GIP receptor (Homo sapiens, UniProt P48546); test: [125I]-GIP binding (SPA), human GIP receptor; settings: read-out: hGIPR Ki, nM (SEM, n)
T2 construct: expressed in transfected cells; crude membranes
T2 sequence (P48546 22-466): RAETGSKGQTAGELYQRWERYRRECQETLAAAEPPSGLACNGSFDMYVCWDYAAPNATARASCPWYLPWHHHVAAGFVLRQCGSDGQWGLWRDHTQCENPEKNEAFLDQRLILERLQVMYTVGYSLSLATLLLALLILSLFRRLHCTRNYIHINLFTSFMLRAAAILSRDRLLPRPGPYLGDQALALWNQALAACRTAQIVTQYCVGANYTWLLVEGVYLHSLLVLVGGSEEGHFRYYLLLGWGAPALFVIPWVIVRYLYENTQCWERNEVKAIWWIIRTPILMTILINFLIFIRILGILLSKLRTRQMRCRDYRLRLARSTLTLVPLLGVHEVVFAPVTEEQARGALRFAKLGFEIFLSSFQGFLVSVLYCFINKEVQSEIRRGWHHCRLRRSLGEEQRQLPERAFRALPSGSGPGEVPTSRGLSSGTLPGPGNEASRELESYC

[5] = biological target: T3, gastric inhibitory peptide receptor (GIPR) (Homo sapiens, UniProt P48546); test: cAMP pharmacological functional assay in presence of casein, hGIPR; type: cell-based; settings: HEK293 cells expressing hGIPR, 0.1% Casein, geometric mean; read-out: hGIPR cAMP Rel EC50 nM (SEM, n)
T3 sequence (P48546 22-466): T2 sequence (P48546 22-466)

CC[C@H](C)[C@H](NC(=O)[C@H](CCCCN)NC(=O)[C@H](CC(=O)O)NC(=O)[C@H](CC(C)C)NC(=O)[C@H](CC(C)C)NC(=O)[C@@H](NC(=O)[C@H](CO)NC(=O)[C@H](Cc1ccc(O)cc1)NC(=O)[C@H](CC(=O)O)NC(=O)[C@H](CO)NC(=O)[C@@H](NC(=O)[C@H](Cc1ccccc1)NC(=O)[C@@H](NC(=O)CNC(=O)[C@H](CCC(=O)O)NC(=O)C(C)(C)NC(=O)[C@@H](N)Cc1ccc(O)cc1)[C@@H](C)O)[C@@H](C)O)[C@@H](C)CC)C(=O)N[C@@H](C)C(=O)N[C@@H](CCC(N)=O)C(=O)NC(C)(C)C(=O)N[C@@H](C)C(=O)N[C@@H](Cc1ccccc1)C(=O)N[C@H](C(=O)N[C@@H](CCC(=O)O)C(=O)N[C@@H](Cc1ccc(O)cc1)C(=O)N[C@@H](CC(C)C)C(=O)N[C@H](C(=O)N[C@@H](CCC(=O)O)C(=O)NCC(=O)NCC(=O)N1CCC[C@H]1C(=O)N[C@@H](CCCCNC(=O)COCCOCCNC(=O)COCCOCCNC(=O)CC[C@H](NC(=O)CCCCCCCCCCCCCCCCCCC(=O)O)C(=O)O)C(=O)N[C@@H](CO)C(=O)NCC(=O)N[C@@H](C)C(=O)N1CCC[C@H]1C(=O)N1CCC[C@H]1C(=O)N1CCC[C@H]1C(=O)N[C@@H](CO)C(N)=O)[C@@H](C)CC)[C@@H](C)CC [Example 41] (H-Y[Aib]EGTFTSDYSILLDKIAQ[Aib]AFIEYLIEGGPK([AEEA-AEEA-γGlu-C20 diacid])SGAPPPS-NH2)
EC50 [1]: 0.96 nM | Ki [2]: 165 nM | Ki [3]: 13.4 nM | Ki [4]: 0.0551 nM | EC50 [5]: 0.229 nM

CC[C@H](C)[C@H](NC(=O)[C@H](CCCCN)NC(=O)[C@H](CC(=O)O)NC(=O)[C@H](CC(C)C)NC(=O)[C@H](CC(C)C)NC(=O)[C@@H](NC(=O)[C@H](CO)NC(=O)[C@H](Cc1ccc(O)cc1)NC(=O)[C@H](CC(=O)O)NC(=O)[C@H](CO)NC(=O)[C@@H](NC(=O)[C@H](Cc1ccccc1)NC(=O)[C@@H](NC(=O)CNC(=O)[C@H](CCC(=O)O)NC(=O)C(C)(C)NC(=O)[C@@H](N)Cc1ccc(O)cc1)[C@@H](C)O)[C@@H](C)O)[C@@H](C)CC)C(=O)N[C@@H](C)C(=O)N[C@@H](CCC(N)=O)C(=O)NC(C)(C)C(=O)N[C@@H](C)C(=O)N[C@@H](Cc1ccccc1)C(=O)N[C@H](C(=O)N[C@@H](CCC(=O)O)C(=O)N[C@@H](Cc1ccc(O)cc1)C(=O)N[C@@H](CC(C)C)C(=O)N[C@H](C(=O)N[C@@H](CCC(=O)O)C(=O)NCC(=O)NCC(=O)N1CCC[C@H]1C(=O)N[C@@H](CO)C(=O)N[C@@H](CCCCNC(=O)COCCOCCNC(=O)COCCOCCNC(=O)CC[C@H](NC(=O)CCCCCCCCCCCCCCCCCCC(=O)O)C(=O)O)C(=O)NCC(=O)N[C@@H](C)C(=O)N1CCC[C@H]1C(=O)N1CCC[C@H]1C(=O)N1CCC[C@H]1C(=O)N[C@@H](CO)C(N)=O)[C@@H](C)CC)[C@@H](C)CC [Example 42] (H-Y[Aib]EGTFTSDYSILLDKIAQ[Aib]AFIEYLIEGGPSK([AEEA-AEEA-γGlu-C20 diacid])GAPPPS-NH2)
EC50 [1]: 1.45 nM | Ki [2]: 160 nM | Ki [3]: 13.2 nM | Ki [4]: 0.0514 nM | EC50 [5]: 0.161 nM

CC[C@H](C)[C@H](NC(=O)[C@H](CCCCN)NC(=O)[C@H](CC(=O)O)NC(=O)[C@H](CC(C)C)NC(=O)[C@H](CC(C)C)NC(=O)[C@@H](NC(=O)[C@H](CO)NC(=O)[C@H](Cc1ccc(O)cc1)NC(=O)[C@H](CC(=O)O)NC(=O)[C@H](CO)NC(=O)[C@@H](NC(=O)[C@H](Cc1ccccc1)NC(=O)[C@@H](NC(=O)CNC(=O)[C@H](CCC(=O)O)NC(=O)C(C)(C)NC(=O)[C@@H](N)Cc1ccc(O)cc1)[C@@H](C)O)[C@@H](C)O)[C@@H](C)CC)C(=O)N[C@@H](C)C(=O)N[C@@H](CCC(N)=O)C(=O)NC(C)(C)C(=O)N[C@@H](C)C(=O)N[C@@H](Cc1ccccc1)C(=O)N[C@H](C(=O)N[C@@H](CCC(=O)O)C(=O)N[C@@H](Cc1ccc(O)cc1)C(=O)N[C@@H](CC(C)C)C(=O)N[C@H](C(=O)N[C@@H](CCC(=O)O)C(=O)NCC(=O)NCC(=O)N1CCC[C@H]1C(=O)N[C@@H](CO)C(=O)N[C@@H](CO)C(=O)N[C@@H](CCCCNC(=O)COCCOCCNC(=O)COCCOCCNC(=O)CC[C@H](NC(=O)CCCCCCCCCCCCCCCCCCC(=O)O)C(=O)O)C(=O)N[C@@H](C)C(=O)N1CCC[C@H]1C(=O)N1CCC[C@H]1C(=O)N1CCC[C@H]1C(=O)N[C@@H](CO)C(N)=O)[C@@H](C)CC)[C@@H](C)CC [Example 43] (H-Y[Aib]EGTFTSDYSILLDKIAQ[Aib]AFIEYLIEGGPSSK([AEEA-AEEA-γGlu-C20 diacid])APPPS-NH2; N-terminus assumed)
EC50 [1]: 0.862 nM | Ki [2]: 134 nM | Ki [3]: 11.8 nM | Ki [4]: 0.101 nM | EC50 [5]: 0.112 nM

CC[C@H](C)[C@H](NC(=O)[C@H](CCCCN)NC(=O)[C@H](CC(=O)O)NC(=O)[C@H](CC(C)C)NC(=O)[C@H](CC(C)C)NC(=O)[C@@H](NC(=O)[C@H](CO)NC(=O)[C@H](Cc1ccc(O)cc1)NC(=O)[C@H](CC(=O)O)NC(=O)[C@H](CO)NC(=O)[C@@H](NC(=O)[C@H](Cc1ccccc1)NC(=O)[C@@H](NC(=O)CNC(=O)[C@H](CCC(=O)O)NC(=O)C(C)(C)NC(=O)[C@@H](N)Cc1ccc(O)cc1)[C@@H](C)O)[C@@H](C)O)[C@@H](C)CC)C(=O)N[C@@H](C)C(=O)N[C@@H](CCC(N)=O)C(=O)NC(C)(C)C(=O)N[C@@H](C)C(=O)N[C@@H](Cc1ccccc1)C(=O)N[C@H](C(=O)N[C@@H](CCC(=O)O)C(=O)N[C@@H](Cc1ccc(O)cc1)C(=O)N[C@@H](CC(C)C)C(=O)N[C@H](C(=O)N[C@@H](CCC(=O)O)C(=O)NCC(=O)NCC(=O)N1CCC[C@H]1C(=O)N[C@@H](CO)C(=O)N[C@@H](CO)C(=O)NCC(=O)N[C@@H](CCCCNC(=O)COCCOCCNC(=O)COCCOCCNC(=O)CC[C@H](NC(=O)CCCCCCCCCCCCCCCCCCC(=O)O)C(=O)O)C(=O)N1CCC[C@H]1C(=O)N1CCC[C@H]1C(=O)N1CCC[C@H]1C(=O)N[C@@H](CO)C(N)=O)[C@@H](C)CC)[C@@H](C)CC [Example 44] (H-Y[Aib]EGTFTSDYSILLDKIAQ[Aib]AFIEYLIEGGPSSGK([AEEA-AEEA-γGlu-C20 diacid])PPPS-NH2)
EC50 [1]: 0.752 nM | Ki [2]: 121 nM | Ki [3]: 10.6 nM | Ki [4]: 0.0516 nM | EC50 [5]: 0.128 nM

CC[C@H](C)[C@H](NC(=O)[C@H](CCCCN)NC(=O)[C@H](CC(=O)O)NC(=O)[C@H](CC(C)C)NC(=O)[C@H](CC(C)C)NC(=O)[C@@H](NC(=O)[C@H](CO)NC(=O)[C@H](Cc1ccc(O)cc1)NC(=O)[C@H](CC(=O)O)NC(=O)[C@H](CO)NC(=O)[C@@H](NC(=O)[C@H](Cc1ccccc1)NC(=O)[C@@H](NC(=O)CNC(=O)[C@H](CCC(=O)O)NC(=O)C(C)(C)NC(=O)[C@@H](N)Cc1ccc(O)cc1)[C@@H](C)O)[C@@H](C)O)[C@@H](C)CC)C(=O)N[C@@H](C)C(=O)N[C@@H](CCC(N)=O)C(=O)NC(C)(C)C(=O)N[C@@H](C)C(=O)N[C@@H](Cc1ccccc1)C(=O)N[C@H](C(=O)N[C@@H](CCC(=O)O)C(=O)N[C@@H](Cc1ccc(O)cc1)C(=O)N[C@@H](CC(C)C)C(=O)N[C@H](C(=O)N[C@@H](CCC(=O)O)C(=O)NCC(=O)NCC(=O)N1CCC[C@H]1C(=O)N[C@@H](CO)C(=O)N[C@@H](CO)C(=O)NCC(=O)N[C@@H](C)C(=O)N[C@@H](CCCCNC(=O)COCCOCCNC(=O)COCCOCCNC(=O)CC[C@H](NC(=O)CCCCCCCCCCCCCCCCCCC(=O)O)C(=O)O)C(=O)N1CCC[C@H]1C(=O)N1CCC[C@H]1C(=O)N[C@@H](CO)C(N)=O)[C@@H](C)CC)[C@@H](C)CC [Example 45] (H-Y[Aib]EGTFTSDYSILLDKIAQ[Aib]AFIEYLIEGGPSSGAK([AEEA-AEEA-γGlu-C20 diacid])PPS-NH2)
EC50 [1]: 1.03 nM | Ki [2]: 11.1 nM | Ki [3]: 5.65 nM | Ki [4]: 0.0463 nM | EC50 [5]: 0.106 nM
